The target in test [1] is T1, purified human platelet fibrinogen receptor (GPIIb/IIIa) (Homo sapiens, UniProt P05106+P08514).
T1 construct: is isolated from human platelet lysates; from tissue
Description: Test (b): GPIIb/IIIa ELISA, inhibition of biotinylated fibrinogen binding. As to conditions: purified human platelet GPIIb/IIIa, ELISA; for IC50: read-out: Test (b): pIC50 (-log(IC50)), 50% inhibition of biotinylated fibrinogen binding to GPIIb/IIIa (converted). In outline:
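Inhibition of biotinylated fibrinogen ([…]) binding to immobilised human platelet fibrinogen receptor, purified by KYGRGDS peptide affinity chromatography, was measured after 2 h at 30 °C. Readout: streptavidin–biotin-HRP colour with TMB at […]; value expressed as pIC50.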

The target in test [2] is T2, human, citrated, platelet-rich plasma (Homo sapiens, UniProt P05106+P08514).
T2 construct: aggregating human, citrated, platelet-rich plasma; endogenous in cells; host or cells: human platelets in citrated platelet-rich plasma
The experiment in a line: Test (a): inhibition of ADP stimulated platelet aggregation (Born). The format is cell-based. As to conditions: ADP induced aggregation of human platelet-rich plasma; for Kb: read-out: Test (a): pA2 value indicating potency of platelet aggregation inhibition (converted). A digest of the protocol: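 pA2 calculated by comparing ADP EC50-type (50% response) values in presence and absence of compound, averaged across concentrations (generally 10-^5 M to 10-^10 M). Aggregation (Born) induced by ADP in citrated human platelet-rich plasma, giving dose-response curves.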

Counter-ions that a name gives are not always drawn.

T2 sequence (P08514 32-887 limits assumed): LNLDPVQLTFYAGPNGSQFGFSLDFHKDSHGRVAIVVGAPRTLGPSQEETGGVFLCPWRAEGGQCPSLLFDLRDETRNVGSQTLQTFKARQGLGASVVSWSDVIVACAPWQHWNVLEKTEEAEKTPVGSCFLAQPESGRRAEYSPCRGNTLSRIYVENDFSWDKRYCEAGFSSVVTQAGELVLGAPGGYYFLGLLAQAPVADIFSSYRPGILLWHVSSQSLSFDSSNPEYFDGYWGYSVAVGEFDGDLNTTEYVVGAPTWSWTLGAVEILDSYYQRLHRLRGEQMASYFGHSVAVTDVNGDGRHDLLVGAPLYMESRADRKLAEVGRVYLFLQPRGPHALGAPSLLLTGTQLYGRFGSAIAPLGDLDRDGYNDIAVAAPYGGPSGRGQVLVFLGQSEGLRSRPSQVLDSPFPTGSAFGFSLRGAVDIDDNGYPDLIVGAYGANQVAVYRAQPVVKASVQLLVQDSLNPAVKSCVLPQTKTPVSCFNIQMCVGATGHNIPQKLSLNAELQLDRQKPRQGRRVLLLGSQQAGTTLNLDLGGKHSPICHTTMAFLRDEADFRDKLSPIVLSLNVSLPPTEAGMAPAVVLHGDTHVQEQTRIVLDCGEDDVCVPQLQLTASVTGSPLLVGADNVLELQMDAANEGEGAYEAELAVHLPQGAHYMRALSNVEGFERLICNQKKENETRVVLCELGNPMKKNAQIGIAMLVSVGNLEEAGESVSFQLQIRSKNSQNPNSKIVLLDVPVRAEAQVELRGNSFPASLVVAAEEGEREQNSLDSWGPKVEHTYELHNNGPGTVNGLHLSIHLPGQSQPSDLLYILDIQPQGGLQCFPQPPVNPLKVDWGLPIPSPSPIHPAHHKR
T2 sequence (P08514 891-1039 limits assumed): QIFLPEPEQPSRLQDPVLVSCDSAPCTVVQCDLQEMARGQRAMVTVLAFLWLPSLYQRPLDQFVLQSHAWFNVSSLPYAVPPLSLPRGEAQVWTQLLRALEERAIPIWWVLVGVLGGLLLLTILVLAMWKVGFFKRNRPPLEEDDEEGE
T2 sequence (P05106 27-788): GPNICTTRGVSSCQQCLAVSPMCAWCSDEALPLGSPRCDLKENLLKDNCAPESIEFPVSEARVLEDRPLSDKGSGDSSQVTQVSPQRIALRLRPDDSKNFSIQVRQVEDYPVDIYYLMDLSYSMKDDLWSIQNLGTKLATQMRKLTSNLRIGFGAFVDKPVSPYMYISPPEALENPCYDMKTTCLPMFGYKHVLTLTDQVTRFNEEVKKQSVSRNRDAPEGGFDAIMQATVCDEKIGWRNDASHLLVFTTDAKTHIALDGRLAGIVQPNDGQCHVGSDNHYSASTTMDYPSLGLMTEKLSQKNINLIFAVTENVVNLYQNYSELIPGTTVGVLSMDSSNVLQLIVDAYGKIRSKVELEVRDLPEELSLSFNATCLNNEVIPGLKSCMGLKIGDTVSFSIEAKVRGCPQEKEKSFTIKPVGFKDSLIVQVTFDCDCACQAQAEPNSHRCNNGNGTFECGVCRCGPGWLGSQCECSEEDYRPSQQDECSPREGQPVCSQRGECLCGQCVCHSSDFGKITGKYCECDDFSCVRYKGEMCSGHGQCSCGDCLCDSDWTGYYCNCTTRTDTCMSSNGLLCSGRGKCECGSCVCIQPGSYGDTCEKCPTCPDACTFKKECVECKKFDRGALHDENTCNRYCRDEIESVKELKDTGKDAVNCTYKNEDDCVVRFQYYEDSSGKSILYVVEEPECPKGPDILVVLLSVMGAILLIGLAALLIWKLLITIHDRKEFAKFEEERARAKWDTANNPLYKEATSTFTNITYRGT
T1 sequence (P08514 32-887 limits assumed): as the sequence (P08514 32-887 limits assumed) above
T1 sequence (P08514 891-1039 limits assumed): as the sequence (P08514 891-1039 limits assumed) above
T1 sequence (P05106 27-788): as the sequence (P05106 27-788) above

For the compound `CCOC(=O)CCCCOc1cccc(N2CCN(c3ccncc3)CC2)c1` [Example 228, Ethyl 3-[4-(4-pyridyl)piperazin-1-yl]phenoxypentanoate], in test [1], the IC50 is > 100000 nM. Besides, the Kb in test [2] was 10000 nM.

Regarding `CCCCS(=O)(=O)N[C@@H](Cc1ccc(OCCCCC2CCN(c3ccncc3)CC2)cc1)C(=O)O` [Example 84, 2-S-(n-Butylsulphonylamino)-3-[4-[4-[1-(4-pyridyl)piperidin-4-yl]butoxy]phenyl]propionic acid], the IC50 in test [1] was 20 nM. For the same compound, in test [2], the Kb is 63.1 nM.

As for `COC(=O)C(CCOc1ccc(N2CCN(c3ccncc3)CC2)cc1)NC(=O)OC(C)(C)C` (racemic) [Example 211, RS Methyl 2-t-butoxycarbonylamino-4-[4-[4-(4-pyridyl)piperazine-1-yl]phenoxy]butyrat], in test [1], the IC50 is 158 nM. Moreover, the Kb in test [2] is 1580 nM.

Consider `COC(=O)COc1ccc(C(=O)C(C)N2CCN(c3ccncc3)CC2)cc1OCC(=O)OC` (stereo not shown) [Example 78], for which the IC50 in test [1] was 251 nM. In addition, in test [2], the Kb is 158 nM.

With `Cc1ccc(S(=O)(=O)NCc2ccc(C(=O)CN3CCN(c4ccncc4)CC3)cc2)cc1` [Example 21, N-[4-[2-[4-(4-Pyridyl)piperazin-1-yl]acetyl]phenyl]methyl-4-methylphenylsulphonamide], in test [1], the IC50 is 158 to 501 nM. Further, in test [2], the Kb was 63.1 to 158 nM.

With `O=C(O)COc1ccc(NC(=O)CC2CCN(c3ccncc3)CC2)cc1` [Example 166, 4-[2-[1-(4-Pyridyl)piperidin-4-yl]acetamido]phenoxyacetic acid dihydrochloride], in test [1], the IC50 was 316 nM. In addition, in test [2], the Kb was 1580 nM.

Regarding `O=C(COc1ccc(C(=O)CN2CCN(c3ccncc3)CC2)cc1)NCc1ccccc1` [Example 145, 2-[4-[2-[4-(4-Pyridyl)piperazin-1-yl]acetyl]phenoxy]-N-(phenylmethyl)-acetamide], in test [1], the IC50 is 5010 nM. The Kb in test [2] was 3160 nM.

Regarding `O=C(O)C1CCN(C(=O)c2ccc(N3CCN(c4ccncc4)CC3)cc2)CC1` [Example 234, 4-[(4-Pyridyl)piperazin-1-yl]benzoylisonipecotic acid], in test [1], the IC50 was 200 nM. Moreover, the Kb in test [2] was 631 nM.

Take `Cc1cc(N2CCN(CC(=O)c3ccc(OCC(=O)O)cc3)CC2)c2ccccc2n1` [Example 42, 4-[2-[4-(2-Methyl-4-quinolinyl)piperazin-1-yl]acetyl]phenoxyacetic acid]: in test [1], the IC50 is 6310 nM. Also, in test [2], the Kb is 50100 nM.

In the case of `CC(C)(C)OC(=O)COC1CCCN(C(=O)CN2CCN(c3ccncc3)CC2)C1` (stereo not shown) [Example 103, Tert-butyl 1-[2-[4-(4-pyridyl)piperazin-1in-1-yl]acetyl]piperidin-3-yloxyacetate], the IC50 in test [1] is 7940 nM. In addition, in test [2], the Kb was 31600 nM.

For the compound `O=C(O)COc1ccc(NC(=O)N2CCN(c3ccncc3)CC2)cc1` [Example 64, 4-[[4-(4-Pyridyl)piperazin-1-yl]carboxamido]phenoxyacetic acid], the IC50 in test [1] was 20 nM. Besides, the Kb in test [2] is 31.6 nM.

Regarding `C=CCc1cc(N2CCN(c3ccncc3)CC2)ccc1OCCCC(=O)O` [Example 206], the IC50 in test [1] is 10 nM. For the same compound, the Kb in test [2] was 251 nM.

`CCCCS(=O)(=O)NC(CC(=O)O)c1ccc(OCC2CCN(c3ccncc3)CC2)cc1` (stereo not shown) [Example 98, 3-(n-Butylsulphonylamino)-3-[4-[1-(4-pyridyl)piperidin-4-yl]methoxyphenyl]propionic acid]: the “Test (b): pIC50 (-log(IC50)), 50% inhibition of biotinylated fibrinogen binding to GPIIb/IIIa” value in test [1] is given as 8.5. The “Test (a): pA2 value indicating potency of platelet aggregation inhibition” value in test [2] is on record as 7.6.

Take `CCCCS(=O)(=O)NC(CC1CCN(C(=O)CN2CCN(c3ccncc3)CC2)CC1)C(=O)OCC` (racemic) [Example 110, Ethyl 2RS-(n-butylsulphonylamino)-3-[1-[2-[4-(4-pyridyl)piperazin-1yl]-acetyl]piperidin-4-yl]propanoate]: the IC50 in test [1] is > 100000 nM. For the same compound, in test [2], the Kb is 6310 nM.

Source of the values: patent publication US5750754A, “Heterocyclic compounds” (Zeneca Limited, priority 1993, dated 1998).
